Measured values as given in PubChem BioAssay AID1963972 (Molecular Pharmacology Branch, DTP, NCI, 2024).

Tested on: 945468-187-T-J2-PDC spheroids viability
Assay: Anticancer human tumor 945468-187-T-J2-PDC patient-derived rectal carcinoma cell line growth inhibition [PI3K]
Conditions: spheroids with HUVEC and MSC; for IC50: curve of first compound; for viability, T/C: stronger effect = lower value
Summary of the method: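 Combination activity was assessed by viability in multicellular tumor spheroids carrying HUVEC and MSC components. Agents were tested with PI3K inhibitors from a Cmax-based top dose (or 10 microM) downward in half-log increments.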

[1] = second compound 0.00316 µM, first compound 0.0316 µM
[2] = second compound 0.00316 µM, first compound 0.1 µM
[3] = second compound 0.00316 µM, first compound 0.316 µM
[4] = second compound 0.00316 µM, first compound 1 µM
[5] = second compound 0.00316 µM, first compound 3.16 µM
[6] = second compound 0.00316 µM, first compound 10 µM
[7] = second compound 0.01 µM, first compound 0.0316 µM
[8] = second compound 0.01 µM, first compound 0.1 µM
[9] = second compound 0.01 µM, first compound 0.316 µM
[10] = second compound 0.01 µM, first compound 1 µM
[11] = second compound 0.01 µM, first compound 3.16 µM
[12] = second compound 0.01 µM, first compound 10 µM
[13] = second compound 0.0316 µM, first compound 0.0316 µM
[14] = second compound 0.0316 µM, first compound 0.1 µM
[15] = second compound 0.0316 µM, first compound 0.316 µM
[16] = second compound 0.0316 µM, first compound 1 µM
[17] = second compound 0.0316 µM, first compound 3.16 µM
[18] = second compound 0.0316 µM, first compound 10 µM
[19] = second compound 0.1 µM, first compound 0.0316 µM
[20] = second compound 0.1 µM, first compound 0.1 µM
[21] = second compound 0.1 µM, first compound 0.316 µM
[22] = second compound 0.1 µM, first compound 1 µM
[23] = second compound 0.1 µM, first compound 3.16 µM
[24] = second compound 0.1 µM, first compound 10 µM
[25] = second compound 0.316 µM, first compound 0.0316 µM
[26] = second compound 0.316 µM, first compound 0.1 µM
[27] = second compound 0.316 µM, first compound 0.316 µM
[28] = second compound 0.316 µM, first compound 1 µM
[29] = second compound 0.316 µM, first compound 3.16 µM
[30] = second compound 0.316 µM, first compound 10 µM
[31] = second compound 1 µM, first compound 0.0316 µM
[32] = second compound 1 µM, first compound 0.1 µM
[33] = second compound 1 µM, first compound 0.316 µM
[34] = second compound 1 µM, first compound 1 µM
[35] = second compound 1 µM, first compound 3.16 µM
[36] = second compound 1 µM, first compound 10 µM
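Further: spheroids exposed to compounds for seven days before reading.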

`CNC(=O)c1ccc(N2C(=S)N(c3ccc(C#N)c(C(F)(F)F)c3)C(=O)C2(C)C)cc1F` + CC(Nc1ccc2c(c1)OCCn1cc(N3C(=O)OCC3C(F)F)nc1-2)C(N)=O was tested, and the IC50 (second compound 0.00316 µM) was > 10 µM, the IC50 (second compound 0.01 µM) was > 10 µM and the IC50 (second compound 0.0316 µM) was > 10 µM. The IC50 (second compound 0.1 µM) was > 10 µM, the IC50 (second compound 0.316 µM) was > 10 µM and the IC50 (second compound 1 µM) was > 10 µM. The viability, T/C [1] was 96.3%, the viability, T/C [2] was 84.8% and the viability, T/C [3] was 123%. It also gave a viability, T/C [4] of 95%, a viability, T/C [5] of 83.4% and a viability, T/C [6] of 80.1%. For the same compound, the viability, T/C [7] was 95.5%, the viability, T/C [8] was 82% and the viability, T/C [9] was 85.4%. For the same compound, the viability, T/C [10] was 103%, the viability, T/C [11] was 96.8% and the viability, T/C [12] was 84.4%. The viability, T/C [13] was 93.9%, the viability, T/C [14] was 78.2% and the viability, T/C [15] was 102%. It also gave a viability, T/C [16] of 103%, a viability, T/C [17] of 99.4% and a viability, T/C [18] of 90.3%. For the same compound, the viability, T/C [19] was 103%, the viability, T/C [20] was 124% and the viability, T/C [21] was 96.4%. The viability, T/C [22] was 92.5%, the viability, T/C [23] was 86.5% and the viability, T/C [24] was 76%. For the same compound, the viability, T/C [25] was 91%, the viability, T/C [26] was 95.5% and the viability, T/C [27] was 88.6%. It also gave a viability, T/C [28] of 88.6%, a viability, T/C [29] of 89.1% and a viability, T/C [30] of 71.6%. For the same compound, the viability, T/C [31] was 84.4%, the viability, T/C [32] was 88.6% and the viability, T/C [33] was 86.7%. For the same compound, the viability, T/C [34] was 87.4%, the viability, T/C [35] was 64.4% and the viability, T/C [36] was 79.6%.
With `Cn1nccc1Nc1nccc(-c2ccn(C(CO)c3ccc(Cl)c(F)c3)c(=O)c2)n1` (stereo unspecified) + CC(Nc1ccc2c(c1)OCCn1cc(N3C(=O)OCC3C(F)F)nc1-2)C(N)=O the IC50 (second compound 0.00316 µM) was > 10 µM, the IC50 (second compound 0.01 µM) was > 10 µM and the IC50 (second compound 0.0316 µM) was > 10 µM. For the same compound, the IC50 (second compound 0.1 µM) was > 10 µM, the IC50 (second compound 0.316 µM) was > 10 µM and the IC50 (second compound 1 µM) was > 10 µM. For the same compound, the viability, T/C [1] was 92.2%, the viability, T/C [2] was 114% and the viability, T/C [3] was 88.5%. The viability, T/C [4] was 102%, the viability, T/C [5] was 90.7% and the viability, T/C [6] was 79.9%. The viability, T/C [7] was 124%, the viability, T/C [8] was 109% and the viability, T/C [9] was 101%. It also gave a viability, T/C [10] of 89.1%, a viability, T/C [11] of 91.9% and a viability, T/C [12] of 74.8%. For the same compound, the viability, T/C [13] was 118%, the viability, T/C [14] was 102% and the viability, T/C [15] was 92.6%. The viability, T/C [16] was 80%, the viability, T/C [17] was 83.6% and the viability, T/C [18] was 77.6%. It also gave a viability, T/C [19] of 113%, a viability, T/C [20] of 90.6% and a viability, T/C [21] of 124%. For the same compound, the viability, T/C [22] was 111%, the viability, T/C [23] was 101% and the viability, T/C [24] was 73.9%. The viability, T/C [25] was 74.3%, the viability, T/C [26] was 105% and the viability, T/C [27] was 86.5%. For the same compound, the viability, T/C [28] was 83%, the viability, T/C [29] was 85% and the viability, T/C [30] was 81.7%. It also gave a viability, T/C [31] of 79.2%, a viability, T/C [32] of 72.4% and a viability, T/C [33] of 84.3%. For the same compound, the viability, T/C [34] was 89.1%, the viability, T/C [35] was 75.5% and the viability, T/C [36] was 83.5%.
For `CC1(C)CCC(Nc2ncc(C(F)(F)F)c(-c3c[nH]c4c(P(C)(C)=O)c(C#N)ccc34)n2)CN1` (stereo unspecified) + CC(Nc1ccc2c(c1)OCCn1cc(N3C(=O)OCC3C(F)F)nc1-2)C(N)=O, the IC50 (second compound 0.00316 µM) was 0.798 µM, the IC50 (second compound 0.01 µM) was 1.31 µM and the IC50 (second compound 0.0316 µM) was 2.11 µM. For the same compound, the IC50 (second compound 0.1 µM) was 1.06 µM, the IC50 (second compound 0.316 µM) was 0.896 µM and the IC50 (second compound 1 µM) was 4.24 µM. The viability, T/C [1] was 96%, the viability, T/C [2] was 115% and the viability, T/C [3] was 71.8%. It also gave a viability, T/C [4] of 50.2%, a viability, T/C [5] of 34.2% and a viability, T/C [6] of 49.6%. It also gave a viability, T/C [7] of 91.6%, a viability, T/C [8] of 92.7% and a viability, T/C [9] of 88.8%. It also gave a viability, T/C [10] of 52.5%, a viability, T/C [11] of 40.5% and a viability, T/C [12] of 42.7%. The viability, T/C [13] was 82.2%, the viability, T/C [14] was 98.3% and the viability, T/C [15] was 61.1%. The viability, T/C [16] was 64.3%, the viability, T/C [17] was 42.9% and the viability, T/C [18] was 43.8%. For the same compound, the viability, T/C [19] was 105%, the viability, T/C [20] was 91% and the viability, T/C [21] was 81%. The viability, T/C [22] was 48.5%, the viability, T/C [23] was 41.8% and the viability, T/C [24] was 51.4%. For the same compound, the viability, T/C [25] was 77.5%, the viability, T/C [26] was 103% and the viability, T/C [27] was 89.3%. It also gave a viability, T/C [28] of 45.8%, a viability, T/C [29] of 39.8% and a viability, T/C [30] of 31.6%. For the same compound, the viability, T/C [31] was 85.3%, the viability, T/C [32] was 76.3% and the viability, T/C [33] was 67.3%. It also gave a viability, T/C [34] of 65.7%, a viability, T/C [35] of 54.6% and a viability, T/C [36] of 40.1%.
